Measured values as given in patent publication US5470833A, “Endothelin antagonistic peptide derivatives” (Banyu Pharmaceutical Co., Ltd., priority 1990, dated 1995).
Read-outs that look alike come from different tables or passages of the source. Numbered stars: 1 amine (or outer) side, 2 acyl side, 3 side chain; on linkers, the order of the positions; unused ones are H or OH. Square brackets hold non-standard residues; d marks the D form. Peptide text beside a SMILES is read from it. * marks the point of attachment. d(β3hA) = C[C@@H](N)CC(=O)O; dNle = CCCC[C@@H](N)C(=O)O; Nva = CCC[C@H](N)C(=O)O; Boc = CC(C)(C)OC(=O)*; Aib = CC(C)(N)C(=O)O; CO = O=C([*:1])[*:2]; NHBn = c1ccc(CN*)cc1; NHPh = c1ccc(N*)cc1; OBn = c1ccc(CO*)cc1; Dha = C=C(N)C(=O)O; NHtBu = CC(C)(C)N*; GABA = NCCCC(=O)O; βAla = NCCC(=O)O; NEt2 = CCN(CC)*

Target: T1, endothelin receptor (membrane of smooth muscle tissue of porcine aorta) (Sus scrofa, UniProt Q29010)
T1 construct: from tissue; host or cells: porcine aorta smooth muscle, membrane fraction
T1 sequence (Q29010 21-427): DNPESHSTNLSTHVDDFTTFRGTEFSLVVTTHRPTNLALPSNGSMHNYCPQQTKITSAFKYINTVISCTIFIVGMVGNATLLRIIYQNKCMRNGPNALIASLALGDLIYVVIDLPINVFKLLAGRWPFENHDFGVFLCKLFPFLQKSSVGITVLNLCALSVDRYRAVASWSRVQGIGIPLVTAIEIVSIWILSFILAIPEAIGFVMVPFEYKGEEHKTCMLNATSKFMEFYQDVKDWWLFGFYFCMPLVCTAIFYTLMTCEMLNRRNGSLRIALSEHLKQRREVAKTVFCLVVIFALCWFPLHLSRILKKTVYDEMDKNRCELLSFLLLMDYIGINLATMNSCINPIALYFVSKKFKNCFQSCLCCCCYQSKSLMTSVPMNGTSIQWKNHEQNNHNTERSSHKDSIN
Assay: Endothelin binding inhibition test (125I-endothelin-1, porcine aorta smooth muscle membrane)
Settings: read-out: 125I-endothelin-1 binding inhibition
Procedure: The smooth muscle tissue of porcine aorta was homogenized in a buffer solution of 10 mM MOPS, pH 7.4, at 4° C. by a polytron. To the homogenate, sucrose was added to a concentration of 20%, and the mixture was centrifuged at 1,000×g for 15 minutes, and the supernatant was further centrifuged at 10,000×g for 15 minutes. The supernatant thereof was further centrifuged at 90,000×g for 40 minutes. The membrane precipitate thereby obtained was suspended in a buffer solution of 5 mM HEPES/Tris, pH 7.4, at a concentration of 25 mg/ml.
Then, 16 μl of this membrane suspension was added to 340 μl of 50 mM Tris/HCl buffer, pH 7.4, containing 10 μM calcium chloride, 10 μM magnesium chloride, 0.1 mM PMSF, 1 μM pepstatin A, 2 μM leupeptin, 1 mM 1,10-phenanthroline and 0.1% bovine serum albumin. To this suspension, 4 μl of (A) endothelin-1 (for nonspecific binding; 0.2 μM as the final concentration), (B) buffer solution A (for total control binding), or (C) a test compound (1.1 μM or 10 μM as the final concentration),was added. Further, to each suspension, 40 μl of ^125 I-endothelin-1 (12000-18000 cpm) was added. These mixtures were incubated at 25° C. for 4 hours, then subjected to filtration on a glass filter GF/C and then washed with 5 mM HEPES/Tris, pH 7.4, containing 0.3% bovine serum albumin. Then, the radioactivity trapped by the glass filter was measured, and the ^125 I-endothelin-1 binding inhibition D (%) at 1.1 μM or 10 μM of the test compound was determined by the following equation. [formula] Each test was performed in triplicate.
The test compounds are indicated by Compound Nos.

Compound | inhibition at 1.1 µM (1.1 μM test compound (no mark)) | also measured
CC(C)C[C@H](NC(=O)Nc1ccccc1)C(=O)N[C@H](Cc1c[nH]c2ccccc12)C(=O)NCC(=O)O [Compound 90] ({NHPh-CO}-Leu-[dW]-Gly-OH) | 46% | 
CC(C)C[C@H](NC(=O)NC(C)(C)C)C(=O)N[C@H](Cc1c[nH]c2ccccc12)C(=O)N[C@H](Cc1c[nH]c2ccccc12)C(=O)O [Compound 81] ({NHtBu-CO}-Leu-[dW]-[dW]-OH) | 84% | 
CC(C)C[C@H](NC(=S)Nc1ccccc1)C(=O)N[C@H](Cc1c[nH]c2ccccc12)C(=O)NCC(=O)O [Compound 91] |  | inhibition at 10 µM (10 μM test compound (marked *)): 51%
CCN(CC)C(=O)N[C@@H](CC(C)C)C(=O)N[C@H](Cc1c[nH]c2ccccc12)C(=O)NCCC(=O)O [Compound 77] ({NEt2-CO}-Leu-[dW]-[βAla]-OH) | 47% | 
CC(C)C[C@H](NC(=O)c1cccs1)C(=O)N[C@H](Cc1c[nH]c2ccccc12)C(=O)NCCC(=O)O [Compound 55] | 54% | 
COC(CNC(=O)[C@@H](Cc1c[nH]c2ccccc12)NC(=O)[C@H](CC(C)C)NC(=O)OC(C)(C)C)C(=O)O (stereo partly drawn) [Compound 146] |  | inhibition at 10 µM (10 μM test compound (marked *)): 70%
CC(C)C[C@H](NC(=O)NCc1ccccc1)C(=O)N[C@H](Cc1c[nH]c2ccccc12)C(=O)NCCC(=O)O [Compound 115] ({NHBn-CO}-Leu-[dW]-[βAla]-OH) | 33% | 
CC(C)C[C@H](NC(=O)OC(C)(C)C)C(=O)N[C@H](Cc1c[nH]c2ccccc12)C(=O)N[C@@H](C(=O)O)c1cccs1 [Compound 42] | 56% | 
CC(C)C[C@H](NC(=O)OC(C)(C)C)C(=O)N[C@H](Cc1c[nH]c2ccccc12)C(=O)N[C@H](Cc1ccccc1)C(=O)O [Compound 39] (Boc-Leu-[dW]-[dF]-OH) | 75% | 
CC(C)C[C@H](NC(=O)OC(C)(C)C)C(=O)N[C@H](Cc1c[nH]c2ccccc12)C(=O)N[C@@H](CC(=O)O)C(=O)Nc1ccccc1 [Compound 45] (Boc-Leu-[dW]-Asp-NHPh) |  | inhibition at 10 µM (10 μM test compound (marked *)): 39%
CC(C)C[C@H](NC(=O)N(C)c1ccccc1)C(=O)N[C@H](Cc1c[nH]c2ccccc12)C(=O)NCCC(=O)O [Compound 76] | 52% | 
CC(C)C[C@H](NC(=O)OC(C)(C)C)C(=O)N[C@H](Cc1c[nH]c2ccccc12)C(=O)N[C@H](CC(=O)OCc1ccccc1)C(N)=O [Compound 35] (Boc-Leu-[dW]-[dD](OBn)-NH2) | 35% | 
CC(C)C[C@H](NC(=O)N1CCCC1(C)C)C(=O)N[C@H](Cc1c[nH]c2ccccc12)C(=O)N[C@H](Cc1c[nH]c2ccccc12)C(=O)O [Compound 173] | 84% | 
CC(C)C[C@H](NC(=O)OC(C)(C)C)C(=O)N[C@H](Cc1c[nH]c2ccccc12)C(=O)N[C@H](CC(=O)O)C(=O)Nc1ccccc1 [Compound 44] (Boc-Leu-[dW]-[dD]-NHPh) | 30% | 
CC(C)C[C@H](NC(=O)OC(C)(C)C)C(=O)N[C@H](Cc1c[nH]c2ccccc12)C(=O)NCCCC(=O)O [Compound 5] (Boc-Leu-[dW]-[GABA]-OH) | 33% | 
CC[C@H](C)[C@H](NC(=O)OC(C)(C)C)C(=O)N[C@H](Cc1c[nH]c2ccccc12)C(=O)NCCC(=O)O [Compound 54] (Boc-Ile-[dW]-[βAla]-OH) | 39% | 
COC(=O)C(C(=O)N[C@@H](CC(C)C)C(=O)N[C@H](Cc1c[nH]c2ccccc12)C(=O)NCCC(=O)O)=C1SC=CS1 [Compound 66] | 77% | 
CC(C)C[C@H](NC(=O)C=C1SC=CS1)C(=O)N[C@H](Cc1c[nH]c2ccccc12)C(=O)NCCC(=O)O [Compound 67] | 63% | 
CC(C)C[C@H](NC(=O)OC(C)(C)C)C(=O)N[C@H](Cc1c[nH]c2ccccc12)C(=O)NC(C)(C)C(=O)O [Compound 13] (Boc-Leu-[dW]-[Aib]-OH) | 39% | 
CC(C)C[C@H](OC(=O)C1CCCCCC1)C(=O)N[C@H](Cc1c[nH]c2ccccc12)C(=O)N[C@H](Cc1c[nH]c2ccccc12)C(=O)O [Compound 201] |  | inhibition at 1.1 µM: 69%
C=C(NC(=O)[C@@H](Cc1c[nH]c2ccccc12)NC(=O)[C@H](CC(C)C)NC(=O)OC(C)(C)C)C(=O)O [Compound 133] (Boc-Leu-[dW]-[Dha]-OH) | 41% | 
CC(C)C[C@H](NC(=O)OC(C)(C)C)C(=O)N[C@H](Cc1c[nH]c2ccccc12)C(=O)N[C@H](Cc1c[nH]c2ccccc12)C(=O)O [Compound 2] (Boc-Leu-[dW]-[dW]-OH) | 83% | 
CC(C)C[C@H](NC(=O)Nc1ccccc1)C(=O)N[C@H](Cc1c[nH]c2ccccc12)C(=O)NCCC(=O)O [Compound 84] ({NHPh-CO}-Leu-[dW]-[βAla]-OH) | 70% | 
CCC[C@H](NC(=O)OC(C)(C)C)C(=O)N[C@H](Cc1c[nH]c2ccccc12)C(=O)NCCC(=O)O [Compound 28] (Boc-[Nva]-[dW]-[βAla]-OH) | 38% | 
COP(=O)(OC)n1cc(C[C@@H](NC(=O)[C@H](CC(C)C)NC(=O)N2CCCCCC2)C(=O)N[C@H](Cc2c[nH]c3ccccc23)C(=O)O)c2ccccc21 [Compound 191] |  | inhibition at 10 µM: 74%
CC(C)C[C@H](NC(=O)OC(C)(C)C)C(=O)N[C@H](Cc1c[nH]c2ccccc12)C(=O)NCC(=O)NCC(=O)O [Compound 23] (Boc-L[dW]GG-OH) | 33% | 

Continued, in another order:

inhibition at 1.1 µM (1.1 μM test compound (no mark)) | Compound | also measured
70% | CC(C)C[C@H](NC(=O)N1C(C)(C)CCCC1(C)C)C(=O)N[C@H](Cc1c[nH]c2ccccc12)C(=O)NCCC(=O)O [Compound 74] | 
86% | CC(C)C[C@H](NC(=O)N1CCCCCC1)C(=O)N[C@H](Cc1cn(C=O)c2ccccc12)C(=O)N[C@H](Cc1c[nH]cn1)C(=O)O [Compound 156] | 
82% | CC(C)C[C@H](NC(=O)N1CCCCCC1)C(=O)N[C@H](Cc1c[nH]c2ccccc12)C(=O)N[C@H](Cc1c[nH]cn1)C(=O)O [Compound 48] | 
75% | COC(=O)[C@@H](Cc1c[nH]cn1)NC(=O)[C@@H](Cc1c[nH]c2ccccc12)NC(=O)[C@H](CC(C)C)NC(=O)N1CCCCCC1 [Compound 47] | 
68% | COC(=O)C[C@@H](C)NC(=O)[C@@H](Cc1c[nH]c2ccccc12)NC(=O)[C@H](CC(C)C)NC(=O)N1CCCCCC1 [Compound 51] | 
45% | CC(C)C[C@H](NC(=O)OC(C)(C)C)C(=O)N[C@H](Cc1c[nH]c2ccccc12)C(=O)NCC(=O)O [Compound 31] (Boc-Leu-[dW]-Gly-OH) | 
73% | CC(C)C[C@H](NC(=O)NC(C)(C)C)C(=O)N[C@H](Cc1c[nH]c2ccccc12)C(=O)N[C@H](C)CC(=O)O [Compound 80] ({NHtBu-CO}-Leu-[dW]-[d(β3hA)]-OH) | 
76% | CC(C)C[C@H](NC(=O)N1CCCCCC1)C(=O)N[C@H](Cc1c[nH]c2ccccc12)C(=O)NN1CCC[C@@H]1C(=O)O [Compound 163] | 
65% | CC(C)C[C@H](NC(=O)OC(C)(C)C)C(=O)N[C@H](Cc1c[nH]c2ccccc12)C(=O)N[C@H](C)C(=O)O [Compound 41] (Boc-Leu-[dW]-[dA]-OH) | 
41% | CCCC[C@@H](NC(=O)[C@@H](Cc1c[nH]c2ccccc12)NC(=O)[C@H](CC(C)C)NC(=O)OC(C)(C)C)C(=O)O [Compound 11] (Boc-Leu-[dW]-[dNle]-OH) | 
85% | COC(=O)[C@@H](Cc1c[nH]c2ccccc12)NC(=O)[C@@H](Cc1c[nH]c2ccccc12)NC(=O)[C@H](CC(C)C)NC(=O)N1CCCCCC1 [Compound 49] | 
74% | CC(C)C[C@H](NC(=O)OC(C)(C)C)C(=O)N[C@H](Cc1c[nH]c2ccccc12)C(=O)N[C@H](C)CC(=O)O [Compound 1] (Boc-Leu-[dW]-[d(β3hA)]-OH) | 
71% | CC(C)C[C@H](NC(=O)N1CCCCCC1)C(=O)N[C@H](Cc1c[nH]c2ccccc12)C(=O)NN1CCC[C@H]1C(=O)O [Compound 164] | 
39% | CC(C)C[C@H](NC(=O)N1CCCCCC1)C(=O)N[C@H](Cc1c[nH]c2ccccc12)C(=O)NCCC(N)=O [Compound 135] | 
32% | CNC(=O)CCNC(=O)[C@@H](Cc1c[nH]c2ccccc12)NC(=O)[C@H](CC(C)C)NC(=O)N1CCCCCC1 [Compound 134] | 
86% | CC(C)C[C@H](NC(=O)N1CCCCCC1)C(=O)N[C@H](Cc1cn(C=O)c2ccccc12)C(=O)N[C@H](C)CS(=O)(=O)O [Compound 162] | 
